System: A375 cells
Test: Assay 2: A375 (BRAF) GI50 cell-based assay (Cell Titer-Glo)
Conditions: Homo sapiens, A-375, 72 hours
Experimental: Alternatively, the following procedure can be used to measure cell-based activity. Test compounds were dissolved in DMSO in 10 mM stock. Cell Titer-Glo® 2.0 Luminescent cell viability assay reagent was purchased from Promega (Madison, WI). A375 and HCT116 cell lines were purchased from American Type Culture Collection (Manassas, VA). For A375 cells, cell culture media was DMEM+10% FBS. For HCT116 cells, cell culture media was McCoy's 5A+10% FBS. All media were supplemented with 100 μg/mL of penicillin, and 100 μg/mL of streptomycin. Cultures were maintained at 37° C. in a humidified atmosphere of 5% CO2 and 95% air.
Test compounds were diluted in DMSO solution with 10-dose and 3-fold dilutions in a source plate starting at 10 mM. 25 nL of each test compound was delivered from the source plate to each well of the 384-well cell culture plates (T=Final) by Echo 550. 25 μL of culture medium containing 2000 of A375 or HCT116 cells was added to each of the wells in duplicates of the cell culture plates (T=0 and T=Final). 25 μL of Cell Titer Glo 2.0 reagent was added to each well of cell culture plate (T=0). The contents were mixed on an orbital shaker for 2 min and incubated at room temperature for 15 min to stabilize luminescent signal. Luminescence was recorded by Envision 2104 Multilabel Reader (PerkinElmer, Santa Clara, CA). The number of viable cells in culture was determined based on quantitation of the ATP present in each culture well. The cells in cell culture plate (T=Final) were incubated with the compounds at 37° C., 5% CO2 for 72 hours. 25 μL of Cell Titer Glo 2.0 reagent was added to each well. The contents were mixed on an orbital shaker for 2 min and incubated at room temperature for 15 min to stabilize luminescent signal. Luminescence was recorded by Envision 2104 Multilabel Reader (PerkinElmer, Santa Clara, CA). The number of viable cells in culture was determined based on quantitation of the ATP present in each culture well. The GI50 curves were plotted using the GraphPad Prism 4 program based on a sigmoidal dose-response equation Y=Bottom+(Top-Bottom)/(1+10^((Log EC50−X)*HillSlope)). All parameters in the equation were calculated by GraphPad Prism 4 program. […] Accordingly, GI50 is the value of 10^X, where X was calculated by the Curve Fitting Equation when Y=50 using Excel.
Assay 2 is the A375 (BRAF) GI50 (nM) cell-based assay as described in Example 39. A2 indicates an IC50 of less than or equal to 1 μM, and B2 indicates an IC50 of greater than 1 μM and less than or equal to 2 μM.

**Q.** `O=C1CCCc2c1sc(Nc1ccc(I)cc1F)c2C(=O)NOCCO` [Compound 1.029, 2-((2-Fluoro-4-iodophenyl)amino)-N-(2-hydroxyethoxy)-7-oxo-4,5,6,7-tetrahydrobenzo[b]thiophene-3-carboxamide] was tested. Which GI50 did it give?
**A.** Its GI50 is ≤ 1000 nM.
